Test results taken from PMC4080980, “The pharmacokinetics of anthocyanins and their metabolites in humans” (British Journal of Pharmacology, 2014).
Marks after values point to notes of the source that are not given here.

Assays:
Format in all cases: in vivo, humans
[1] = Urinary elimination/recovery after 500 mg oral bolus of 13C5-C3G; details: urine, single 500 mg oral 13C5-C3G; for Tmax: male, human, po, 500 mg, urine collection interval, read-out: Time at maximum concentration; for Total recovery: 0-48 h; for Total recovery / Maximum concentration: mean ± SEM
Experimental: (§1) A detailed description of the clinical design was previously published ([Czank et al., 2013]). Briefly, a single 500 mg oral bolus dose of isotopically labelled C3G (^13C5-C3G) was fed to eight healthy male participants (body mass index, 18.5–30.5 kg·m^–2; aged 18–45 years) after an overnight fast (>8 h). Participants provided blood (baseline, 0.5, 1, 2, 4, 6, 24, 48 h), urine (individual voids between 0 and 6 h, total voids between 6–24 and 24–48 h), breath (baseline, 0.5, 1, 2, 4, 6, 24, 48 h) and faecal samples (all voids between 0–6, 6–24 and 24–48 h). The study was conducted at the Clinical Research and Trials Unit at the University of East Anglia according to the principles expressed in the Declaration of Helsinki and was approved by the Cambridgeshire 3 Research Ethics Committee (REC ref: 10/H0306/42) and registered at clinicaltrials.gov as NCT01106729.
(§2) Serum, urine and faecal samples were extracted by SPE and analysed by HPLC-ESI-MS/MS as recently described ([Czank et al., 2013]). The extraction efficiency was established as 87 ± 11% (coefficient of variation, CV; 6.8 ± 0.7%) for serum, 88 ± 18% (CV, 7.9 ± 0.8%) for urine and 81 ± 21% (CV, 14.1 ± 1.2%) for faeces (n = 3 replicates for each analyte). Sample extracts (5 μL) were injected onto a Kinetex PFP column (Phenomonex) and separated using an Agilent 1200 series HPLC with a QTrap 4000 linear ion trap mass spectrometer (ABSciex, Warrington, UK). […] Metabolite identification was performed by multiple reaction monitoring (MRM) optimized for the detection of pure standards with m/z of the parent and daughter fragments adjusted to +2,+3,+5 amu to allow identification of the ^13C-labelled metabolites derived from the B-ring, A-ring or the parent structure respectively. Metabolites were confirmed on the basis of retention time (using authentic and synthesized standards where possible) and three or more ion transitions. The HPLC-ESI-MS/MS method was validated for linearity and precision across all metabolites. Six point standard curves ranging from 1.25 to 20 μM were constructed from analytical standards and injected six times. The precision was established as 1.4–11.0% and linearity of the standard curves was established as r^2 = 0.991–1.000 (CV, 0.2%) across the identified metabolites.
(§3) Pharmacokinetic modelling of metabolites in the serum was performed with the PKSolver ‘add-on’ for Excel 2010 (Microsoft, […], USA) ([Zhang et al., 2010]) using non-compartmental analysis with the AUC calculated using the trapezoidal rule. Pharmacokinetic parameters were established for each individual analyte and presented as mean ± SEM. Urine samples collected during the first 6 h post-bolus were grouped together to the nearest hour time point (i.e. samples were not pooled but individual concentrations were averaged post-quantification) for graphical representation and to calculate total cumulative recovery. The concentration of metabolites was converted to amount recovered from urine by accounting for the molecular weight of the individual ^13C-labelled metabolites and the volume of the individual participants void and averaged across participants. Recovery of metabolites in the faeces was established from the molecular weight of the ^13C-labelled metabolite and the weight of the individual participants void adjusting for faecal water content as previously described ([Czank et al., 2013]). Urine and faecal recovery amounts are presented as mean ± SEM (n = 8), unless otherwise stated.

[2] = Faecal recovery after 500 mg oral bolus of 13C5-C3G; details: faeces, 500 mg oral 13C5-C3G; for Recovery 24–48 h / Recovery 6–24 h: mean ± SEM; for Recovery 0–6 h: 0–6 h (only 2 participants provided voids)
Experimental: The study was conducted at the Clinical Research and Trials Unit at the University of East Anglia according to the principles expressed in the Declaration of Helsinki and was approved by the Cambridgeshire 3 Research Ethics Committee (REC ref: 10/H0306/42) and registered at clinicaltrials.gov as NCT01106729.
Sample extracts (5 μL) were injected onto a Kinetex PFP column (Phenomonex) and separated using an Agilent 1200 series HPLC with a QTrap 4000 linear ion trap mass spectrometer (ABSciex, Warrington, UK). […] Metabolite identification was performed by multiple reaction monitoring (MRM) optimized for the detection of pure standards with m/z of the parent and daughter fragments adjusted to +2,+3,+5 amu to allow identification of the ^13C-labelled metabolites derived from the B-ring, A-ring or the parent structure respectively. […] The HPLC-ESI-MS/MS method was validated for linearity and precision across all metabolites.
Pharmacokinetic parameters were established for each individual analyte and presented as mean ± SEM. Urine samples collected during the first 6 h post-bolus were grouped together to the nearest hour time point (i.e. samples were not pooled but individual concentrations were averaged post-quantification) for graphical representation and to calculate total cumulative recovery. The concentration of metabolites was converted to amount recovered from urine by accounting for the molecular weight of the individual ^13C-labelled metabolites and the volume of the individual participants void and averaged across participants. […] Urine and faecal recovery amounts are presented as mean ± SEM (n = 8), unless otherwise stated.

[3] = Serum pharmacokinetics after 500 mg oral bolus of 13C5-C3G (HPLC-ESI-MS/MS, non-compartmental analysis); details: for half-life / Tmax / Cmax / AUC(0-t) / AUC0-48: serum; for half-life / t1/2: serum elimination half-life; for half-life / Tmax / Cmax / AUC(0-t) / t1/2 / AUC0-48: single 500 mg oral 13C5-C3G; for half-life / Tmax / AUC(0-t) / t1/2 / AUC0-48: mean ± SEM; for Cmax: healthy men, mean ± SEM of participants in whom detected; for AUC(0-t) / AUC0-48: trapezoidal rule; for AUC(0-t): read-out: AUC0-48
Experimental: as §1, §2, §3

[4] = male, human, po, 500 mg, read-out: tmax

Row | SMILES | Tmax [1] [h] | Total recovery [1] [µg] | Maximum concentration [1] [nM] | Recovery 24–48 h [2] | Recovery 6–24 h [2] | other results
1 | O=C(O)c1ccc(O)cc1 | 1 to 2 | 13.2 ± 3.7 | 49 ± 11 | 22.0 ± 11.6 ^g μg | – | –
2 | COc1cc(C(=O)O)ccc1OS(=O)(=O)O [VA-4-sulfate] | – | 449.1 ± 112.4 | 1682 ± 899 | 69.0 ± 39.1 ^g μg | – | Recovery 0–6 h [2]: 0.6 ^b μg
3 | COc1ccc(C=O)cc1 [4-Methoxybenzaldehyde] | – | – | – | – | 20.7 ^b μg | –
4 | O=C(O)Cc1ccc(O)c(O)c1 [3,4-Dihydroxyphenylacetic acid] | 24 to 48 | 28.0 | 82 | 12.8 ± 7.5 ^c μg | 10.1 ± 4.0 ^e μg | Recovery 0–6 h [2]: 2.0 ^b μg
5 | O=C(O)CNC(=O)c1ccccc1 [Hippuric acid] | 6 to 24 | 2415.6 ± 2223.0 | 5417 ± 4906 | 27.5 ± 27.4 ^h μg | 12.0 ± 11.4 ^g μg | half-life ([3]; male, human, po, 500 mg): 95.6 ± 77.8 h; Tmax [3, 4]: ~16 h; Cmax ([3]; male, human, po, 500 mg): 1960 ± 1390 nM; Tmax [3]: 15.7 ± 4.1 h; Maximum concentration ([1]; listed as hippuric acid): 5417 nM
6 | COc1cc(-c2[o+]c3cc(O)cc(O)c3cc2OC2OC(CO)C(O)C(O)C2O)ccc1O (centres unmarked) [Peonidin-3-glucoside] | 1 to 2 | 22.9 ± 10.6 | 76 ± 43 | – | – | –
7 | O=C(O)c1ccc(O)c(OC2OC(C(=O)O)C(O)C(O)C2O)c1 (centres unmarked) [PCA-3-glucuronide] | 1 to 2 | 197.7 ± 41.2 | 301 ± 72 | 49.0 ^b μg | 22.9 ± 22.0 ^g μg | half-life ([3]; male, human, po, 500 mg): 18 ± 15.6 h; Tmax [3, 4]: 2.7 ± 1 h; Cmax ([3]; male, human, po, 500 mg): 11 ± 3 nM; AUC(0-t) ([3]; male, human): 0.06 ± 0.038 µM·h
8 | O=C(O)c1ccc(OC2OC(C(=O)O)C(O)C(O)C2O)c(O)c1 (centres unmarked) [PCA-4-glucuronide] | – | 100.3 ± 30.2 | 233 ± 65 | 20.4 ± 16.2 ^i μg | 16.1 ± 17.5 µg | t1/2 [3]: 19.4 ± 3.1 h; Cmax [3]: 68 ± 61 nM; Tmax [3]: 3.8 ± 0.8 h; AUC0-48 [3]: 0.618 ± 0.489 µM·h
9 | COc1cc(/C=C/C(=O)O)ccc1O [Ferulic acid] | – | – | – | – | – | Tmax [3, 4]: ~8 h; AUC(0-t) ([3]; male, human): 1.82 ± 1.05 µM·h; time of detection after consumption ([3]; serum and urine samples): ≤ 4 h; Tmax [3]: 8.2 ± 4.1 h; Recovery 6–24 h ([2]; listed as B-ring-derived ferulic acid): 2373.1 µg
10 | COc1ccc(C(=O)O)cc1OC1OC(C(=O)O)C(O)C(O)C1O (centres unmarked) [IsoVA-3-glucuronide] | – | 526.8 ± 92.2 | 699 ± 90 | 12.7 ± 10.9 ^h μg | 1.3 ^b μg | t1/2 [3]: 1.6 ± 0.2 h; Cmax [3]: 35 ± 5 nM; Tmax [3]: 4.3 ± 0.6 h; AUC0-48 [3]: 0.103 ± 0.013 µM·h; Recovery 0–6 h [2]: 1.8 ^b μg
11 | COc1cc(C(=O)O)ccc1OC1OC(C(=O)O)C(O)C(O)C1O (centres unmarked) [VA-4-glucuronide] | – | 618.4 ± 109.7 | 762 ± 124 | 9.5 ± 7.9 ^g μg | 3.3 ^b μg | Cmax [3]: 24 ± 4 nM; Tmax [3]: 4.8 ± 0.4 h; AUC0-48 [3]: 0.074 ± 0.011 µM·h; Recovery 0–6 h [2]: 3.6 ^b μg
12 | O=C(O)Cc1ccc(O)cc1 [4-Hydroxyphenylacetic acid] | 4 to 5 | 50.0 ± 2.0 | 391 ± 113 | 55.4 ^b μg | 7.3 ^b μg | –
13 | COc1ccc(C(=O)O)cc1O [IsoVA] | – | 79.5 ± 54.2 | 212 ± 130 | 8.5 ^b μg | 11.0 ^b μg | Cmax [3]: 195 nM; Tmax [3]: 2.0 h; AUC0-48 [3]: 0.189 µM·h
14 | O=Cc1ccc(O)cc1 [4-Hydroxybenzaldehyde] | 5 to 6 | 10.0 ± 9.0 | 97 ± 94 | 0.1 ^b μg | 0.8 ± 0.8 ^h μg | half-life ([3]; male, human, po, 500 mg): 17.9 ± 8.8 h; Tmax [3, 4]: 5.6 ± 3.1 h; Cmax ([3]; male, human, po, 500 mg): 667 ± 653 nM; AUC(0-t) ([3]; male, human): 0.663 ± 0.505 µM·h
15 | COc1ccc(C(=O)O)c(O)c1 [2-Hydroxy-4-methoxybenzoic acid] | 3 to 4 | 64.6 | 172 | 273.3 ± 272.7 ^h μg | 1.4 ^b μg | –
16 | O=Cc1ccc(O)c(O)c1 [3,4-Dihydroxybenzaldehyde] | 0 to 1 | 6.3 ± 2.6 | 24 ± 7 | 5.1 ± 1.8 ^i μg | 3.4 ± 3.8 ^h μg | Maximum concentration ([1]; listed as 3,4-dihydroxybenzaldehyde): 24 nM
17 | O=C(O)c1ccc(OS(=O)(=O)O)c(O)c1 [PCA-4-sulfate] | – | 492.4 ± 193.0 | 1244 ± 333 | 12.0 ± 10.2 ^g μg | 23.0 ± 18.1 ^g μg | –
18 | COc1ccc(C(=O)O)cc1OS(=O)(=O)O [IsoVA-3-sulfate] | – | 183.2 ± 93.1 | 822 ± 557 | 176.1 ± 174.7 ^h μg | 0.6 ± 0.3 ^h μg | –
19 | COc1cc(/C=C/C(=O)O)ccc1O [A-ring-derived ferulic acid] | – | – | – | – | 469.7 µg | t1/2 [3]: 96.5 ± 73.4 h
20 | O=C(O)/C=C/c1ccc(O)c(O)c1 [Caffeic acid] | – | – | – | 354.6 ± 125.0 ^h μg | 25.2 ^b μg | –
21 | O=C(O)c1cccc(O)c1O [2,3-Dihydroxybenzoic acid] | – | – | – | 440.4 ± 381.8 ^h μg | – | –
22 | COC(=O)c1ccc(O)c(OC)c1 [Methyl vanillate] | – | – | – | – | 35.1 ^b μg | –
